Experimental data published in patent publication US9459250B2, “Use of T1R3 venus flytrap region polypeptide to screen for taste modulators” (SENOMYX, INC., priority 2003, dated 2016).

Target: T1R1/T1R3 (Homo sapiens (Human), UniProt Q7RTX0+Q7RTX1)
Assay: Umami enhancement assay: MSG dose response with and without compound
Type: cell-based
Conditions: Table 1; compound @ 0.01 uM
Description: In enhancement assay experiments, a MSG dose response was run and a second MSG dose response was run with a certain amount of candidate compound at every MSG concentrations at the same time. Then, the EC50 ratio is calculated based on the following definitions: EC50 Ratio=EC50(MSG)/EC50(MSG+[Compound])
wherein “[compound]” refers to the concentration of compound used to elicit (or enhance or potentiate) the MSG dose response. Those concentrations can vary from a pM to an mM, more preferred, from a low nM to μM.
HEK-Gα15 cells were engineered to inducibly express T1R1/T1R3 using the GeneSwitch system (Invitrogen). pGene-derived zeocin-resistant expression vectors for human T1R1 and T1R3 (plasmid SXV603 for T1R1 and SXV611 for T1R3) and a puromycin-resistant pSwitch-derived vector that carries the GeneSwitch protein (plasmid SXV628) were linearized and cotransfected into the HEK-Gα15 cell line. Zeocin-resistant and puromycin-resistant colonies were selected, expanded, induced with variable amounts of mifepristone, and tested by calcium imaging for responses to umami taste stimuli. […] After replacement with 50 μl PBS, stimulation was performed at room temperature by the addition of 50 μl PBS supplemented with different stimuli. The maximal fluorescence from four independent determinations were averaged, corrected for background fluorescence measured prior to compound addition, and normalized to the response to 0.002 mM ionomycin (CALBIOCHEM).

T1R1/T1R3, sequence (Q7RTX1 21-841): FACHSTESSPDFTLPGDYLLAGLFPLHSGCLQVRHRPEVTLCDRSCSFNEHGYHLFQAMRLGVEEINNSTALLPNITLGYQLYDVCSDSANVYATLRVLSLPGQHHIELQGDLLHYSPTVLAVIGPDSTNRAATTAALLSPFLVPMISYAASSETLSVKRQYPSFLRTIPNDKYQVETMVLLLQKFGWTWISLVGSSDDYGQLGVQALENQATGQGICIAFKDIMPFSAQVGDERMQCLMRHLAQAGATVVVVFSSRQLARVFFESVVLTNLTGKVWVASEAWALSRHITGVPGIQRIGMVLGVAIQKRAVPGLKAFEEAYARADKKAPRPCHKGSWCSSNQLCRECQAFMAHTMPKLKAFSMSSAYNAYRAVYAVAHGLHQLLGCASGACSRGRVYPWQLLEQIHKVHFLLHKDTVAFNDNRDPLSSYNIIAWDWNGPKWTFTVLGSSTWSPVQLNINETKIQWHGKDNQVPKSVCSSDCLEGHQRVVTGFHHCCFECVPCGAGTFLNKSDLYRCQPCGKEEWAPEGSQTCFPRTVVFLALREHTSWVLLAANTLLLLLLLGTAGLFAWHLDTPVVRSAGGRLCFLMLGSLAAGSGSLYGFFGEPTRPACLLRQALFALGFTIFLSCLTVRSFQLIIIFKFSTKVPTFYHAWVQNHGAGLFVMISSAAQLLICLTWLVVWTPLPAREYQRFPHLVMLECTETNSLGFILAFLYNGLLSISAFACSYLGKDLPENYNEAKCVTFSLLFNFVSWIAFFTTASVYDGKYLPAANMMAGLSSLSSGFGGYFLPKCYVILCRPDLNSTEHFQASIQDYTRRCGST
T1R1/T1R3, sequence (Q7RTX0 21-852 C757R): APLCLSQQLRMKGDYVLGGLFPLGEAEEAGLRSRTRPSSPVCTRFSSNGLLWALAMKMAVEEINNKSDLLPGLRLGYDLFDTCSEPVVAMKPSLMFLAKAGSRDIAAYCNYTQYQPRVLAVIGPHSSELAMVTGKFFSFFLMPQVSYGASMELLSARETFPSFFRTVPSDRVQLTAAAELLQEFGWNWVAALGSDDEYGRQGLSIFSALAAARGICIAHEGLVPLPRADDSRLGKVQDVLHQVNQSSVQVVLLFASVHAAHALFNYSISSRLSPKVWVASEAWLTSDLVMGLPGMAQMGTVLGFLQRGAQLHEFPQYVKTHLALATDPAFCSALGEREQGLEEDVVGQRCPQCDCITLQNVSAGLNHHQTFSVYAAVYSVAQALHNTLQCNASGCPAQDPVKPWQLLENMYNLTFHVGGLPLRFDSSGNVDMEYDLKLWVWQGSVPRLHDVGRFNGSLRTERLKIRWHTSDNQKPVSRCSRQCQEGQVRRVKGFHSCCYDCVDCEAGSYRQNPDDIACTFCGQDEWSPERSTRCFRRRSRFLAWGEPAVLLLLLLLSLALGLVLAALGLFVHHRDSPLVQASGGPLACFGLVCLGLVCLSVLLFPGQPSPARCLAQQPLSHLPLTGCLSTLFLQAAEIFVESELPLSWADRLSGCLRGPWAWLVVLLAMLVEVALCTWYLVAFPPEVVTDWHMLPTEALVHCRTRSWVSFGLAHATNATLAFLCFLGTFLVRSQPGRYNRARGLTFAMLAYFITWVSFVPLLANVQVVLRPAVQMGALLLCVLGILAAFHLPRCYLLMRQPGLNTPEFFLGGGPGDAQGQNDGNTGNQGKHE

| Ec50 ratio (vs. MSG) | SMILES |
| --- | --- |
| 6.98 | COC(=O)c1ccc(NC(=O)c2c(Cl)ccc(Cl)c2OC)cc1 [Compound A2] |

Same assay, conditions: Table 1; compound @ 0.03 uM

| Ec50 ratio (vs. MSG) | SMILES |
| --- | --- |
| 6.14 | CCOc1ccc(NC(=O)c2cc(Cl)ccc2Cl)cc1 [Compound A3] |

Same assay, conditions: Table 1; compound @ 0.1 uM

| Ec50 ratio (vs. MSG) | SMILES |
| --- | --- |
| 6.42 | O=C(N[C@H]1CCCc2ccccc21)c1ccc2c(c1)OCO2 [Compound A47] |
| 5.12 | CCCC(C)NC(=O)c1ccc(OC)c(Cl)c1 (centres unmarked) [Compound A80] |

Same assay, conditions: Table 1; compound @ 0.3 uM

| Ec50 ratio (vs. MSG) | SMILES |
| --- | --- |
| 6.5 | CCC(COC)NC(=O)c1cc2cc(Cl)ccc2o1 (centres unmarked) [Compound A11] |
| 2.62 | CCCC(CCC)NC(=O)c1ccc(OCC)cc1 [Compound A68] |
| 4.98 | CCCC(CCC)NC(=O)c1ccc(OC)c(F)c1 [Compound A74] |
| 10.22 | C=Cc1ccc(C(=O)NC(CCC)CCC)cc1 [Compound A78] |
| 4.01 | COc1ccc(C(=O)NC2CCc3ccccc32)cc1Cl (centres unmarked) [Compound A106] |

Same assay, conditions: Table 1; compound @ 1 uM

| Ec50 ratio (vs. MSG) | SMILES |
| --- | --- |
| 2.86 | COC(=O)C(CC(C)C)NC(=O)c1cc2cc(OC)ccc2o1 (stereo in doubt) [Compound A6] |
| 2.74 | CCOc1ccc(NC(=O)c2c(Cl)ccc(Cl)c2OC)cc1 [Compound A1] |
| 4.46 | CCC(CC)NC(=O)c1cc2cc(OC)ccc2o1 [Compound A13] |
| 3.74 | CCC(CC)NC(=O)c1cc2ccccc2o1 [Compound A21] |
| 12.6 | CCCC(CCC)NC(=O)c1ccc(Br)o1 [Compound A30] |
| 10.04 | CCCC(CCC)NC(=O)c1cc(C)c(C)o1 [Compound A31] |
| 8.81 | CCCC(CCC)NC(=O)c1ccc2cc[nH]c2c1 [Compound A35] |
| 6.54 | CCCC(CCC)NC(=O)c1ccc(C)s1 [Compound A38] |
| 2.3 | Cc1ccc(C(=O)NC2CCCc3ccccc32)s1 (centres unmarked) [Compound A39] |
| 9.27 | CC(CCc1ccccc1)NC(=O)c1ccc2c(c1)OCO2 (centres unmarked) [Compound A48] |
| 9.53 | CCCC(NC(=O)c1ccc2c(c1)OCO2)C(=O)OC (centres unmarked) [Compound A49] |
| 3.8 | COc1cccc(C(=O)NC2CCCc3ccccc32)c1O (centres unmarked) [Compound A87] |
| 2.85 | COc1ccc([C@@H](C)NC(=O)c2ccc(OC)c(Cl)c2)cc1 [Compound A89] |
| 5.7 | COc1cccc(C(=O)N[C@H]2CCCc3ccccc32)c1O [Compound A93] |
| 7.62 | CCCC(CCC)NC(=O)c1ccc(OC)cc1O [Compound A101] |
| 9.49 | Cc1cc(C(=O)NC2CCCc3ccccc32)ccc1O (centres unmarked) [Compound A102] |
| 2.79 | C=Cc1ccc(C(=O)N[C@H]2CCCc3ccccc32)cc1 [Compound A105] |

Same assay, conditions: Table 1; compound @ 3 uM

| Ec50 ratio (vs. MSG) | SMILES |
| --- | --- |
| 2.14 | CCCCC(CCCC)NC(=O)c1ccc2c(c1)OCO2 [Compound A41] |

Same assay, conditions: Table 3; Con. 1 uM

| Ec50 ratio (vs. MSG) | SMILES |
| --- | --- |
| 4.95 | CCCC(CCC)NC(=O)Nc1ccccc1Cl [Compound C1, 1-(2-chlorophenyl)-3-(heptan-4-yl)urea] |
| 4.52 | CCC(NC(=O)Nc1ccc(Cl)cc1Cl)c1ccccc1 (centres unmarked) [Compound C2, 1-(2,4-dichlorophenyl)-3-(1-phenylpropyl)urea] |
| 9.08 | CC(NC(=O)Nc1ccccc1Cl)C1CCCCC1 (centres unmarked) [Compound C5, 1-(2-chlorophenyl)-3-(1-cyclohexylethyl)urea] |

Same assay, conditions: Table 3; Con. 3 uM

| Ec50 ratio (vs. MSG) | SMILES |
| --- | --- |
| 3.24 | CC1CCCCC1NC(=O)Nc1ccccc1Cl (centres unmarked) [Compound C3, 1-(2-chlorophenyl)-3-(2-methylcyclohexyl)urea] |
| 12.15 | CCCC(CCC)NC(=O)Nc1ccccc1F [Compound C4, 1-(2-fluorophenyl)-3-(heptan-4-yl)urea] |
